Data as given in the supplement of paper PMC10307832.

Key:
Experiment in all cases: relative viability (nuclei count vs DMSO), 5 days (fraction); higher = more cells survive
201T = system: 201T
In short: (§1)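 Lung cancer cell lines were seeded in 1536-well plates and dosed by pin tool the next day, with either a single drug or a fixed anchor-drug dose combined with five library-drug doses (not always all listed) spaced in √10 steps. Five days later, one step fixed the cells and stained their nuclei (final 0.05% Triton X-100, 1% formaldehyde, 1 ug/ml Hoechst), and nuclei were counted on 4× images. Relative viability is the nuclei count in treated wells divided by the count in vehicle wells, and each value is the median of duplicate plates.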

A-427 = system: A-427
In short: as §1

ABC-1 = system: ABC-1
In short: as §1

BEN = system: BEN
In short: as §1

CAL-12T = system: CAL-12T
In short: as §1

H3255 = system: H3255
In short: as §1

LC-2-ad = system: LC-2-ad
In short: as §1

LCLC-97TM1 = system: LCLC-97TM1
In short: as §1

NCI-H1650 = system: NCI-H1650
In short: as §1

NCI-H1651 = system: NCI-H1651
In short: as §1

NCI-H1915 = system: NCI-H1915
In short: as §1

NCI-H1944 = system: NCI-H1944
In short: as §1

NCI-H2023 = system: NCI-H2023
In short: as §1

NCI-H2087 = system: NCI-H2087
In short: as §1

NCI-H441 = system: NCI-H441
In short: as §1

NCI-H460 = system: NCI-H460
In short: as §1

NCI-H520 = system: NCI-H520
In short: as §1

NCI-H596 = system: NCI-H596
In short: as §1

NCI-H650 = system: NCI-H650
In short: as §1

NCI-H661 = system: NCI-H661
In short: as §1

NCI-H727 = system: NCI-H727
In short: as §1

PC-3 [JPC-3] = system: PC-3 [JPC-3]
In short: as §1

Compound: CCN(CC)CCCCNc1ncc2cc(-c3cc(OC)cc(OC)c3)c(NC(=O)NC(C)(C)C)nc2n1 + Cc1nc(Nc2ncc(C(=O)Nc3c(C)cccc3Cl)s2)cc(N2CCN(CCO)CC2)n1 [Dasatinib] (partner 0.075 µM)
- relative viability (201T; first compound 0.01 µM): 0.553
- relative viability (201T; first compound 0.03162 µM): 0.568
- relative viability (201T; first compound 0.1 µM): 0.677
- relative viability (201T; first compound 0.3162 µM): 0.568
- relative viability (201T; first compound 1 µM): 0.635
- relative viability (A-427; first compound 0.01 µM): 0.749
- relative viability (A-427; first compound 0.03162 µM): 0.647
- relative viability (A-427; first compound 0.1 µM): 0.924
- relative viability (A-427; first compound 0.3162 µM): 0.646
- relative viability (A-427; first compound 1 µM): 0.565
- relative viability (ABC-1; first compound 0.01 µM): 0.617
- relative viability (ABC-1; first compound 0.03162 µM): 0.541
- relative viability (ABC-1; first compound 0.1 µM): 0.618
- relative viability (ABC-1; first compound 0.3162 µM): 0.548
- relative viability (ABC-1; first compound 1 µM): 0.535
- relative viability (BEN; first compound 0.01 µM): 0.298
- relative viability (BEN; first compound 0.03162 µM): 0.282
- relative viability (BEN; first compound 0.1 µM): 0.359
- relative viability (BEN; first compound 0.3162 µM): 0.353
- relative viability (BEN; first compound 1 µM): 0.26
- relative viability (CAL-12T; first compound 0.01 µM): 0.389
- relative viability (CAL-12T; first compound 0.03162 µM): 0.525
- relative viability (CAL-12T; first compound 0.1 µM): 0.435
- relative viability (CAL-12T; first compound 0.3162 µM): 0.371
- relative viability (CAL-12T; first compound 1 µM): 0.417
- relative viability (H3255; first compound 0.01 µM): 0.342
- relative viability (H3255; first compound 0.03162 µM): 0.305
- relative viability (H3255; first compound 0.1 µM): 0.478
- relative viability (H3255; first compound 0.3162 µM): 0.594
- relative viability (H3255; first compound 1 µM): 0.339
- relative viability (LC-2-ad; first compound 0.01 µM): 0.575
- relative viability (LC-2-ad; first compound 0.03162 µM): 0.679
- relative viability (LC-2-ad; first compound 0.1 µM): 0.73
- relative viability (LC-2-ad; first compound 0.3162 µM): 0.664
- relative viability (LC-2-ad; first compound 1 µM): 0.344
- relative viability (LCLC-97TM1; first compound 0.01 µM): 0.806
- relative viability (LCLC-97TM1; first compound 0.03162 µM): 0.877
- relative viability (LCLC-97TM1; first compound 0.1 µM): 0.93
- relative viability (LCLC-97TM1; first compound 0.3162 µM): 0.934
- relative viability (LCLC-97TM1; first compound 1 µM): 0.838
- relative viability (NCI-H1650; first compound 0.01 µM): 0.319
- relative viability (NCI-H1650; first compound 0.03162 µM): 0.286
- relative viability (NCI-H1650; first compound 0.1 µM): 0.375
- relative viability (NCI-H1650; first compound 0.3162 µM): 0.21
- relative viability (NCI-H1650; first compound 1 µM): 0.191
- relative viability (NCI-H1651; first compound 0.01 µM): 0.465
- relative viability (NCI-H1651; first compound 0.03162 µM): 0.448
- relative viability (NCI-H1651; first compound 0.1 µM): 0.486
- relative viability (NCI-H1651; first compound 0.3162 µM): 0.47
- relative viability (NCI-H1651; first compound 1 µM): 0.288
- relative viability (NCI-H1915; first compound 0.01 µM): 0.303
- relative viability (NCI-H1915; first compound 0.03162 µM): 0.306
- relative viability (NCI-H1915; first compound 0.1 µM): 0.361
- relative viability (NCI-H1915; first compound 0.3162 µM): 0.286
- relative viability (NCI-H1915; first compound 1 µM): 0.297
- relative viability (NCI-H1944; first compound 0.01 µM): 0.197
- relative viability (NCI-H1944; first compound 0.03162 µM): 0.212
- relative viability (NCI-H1944; first compound 0.1 µM): 0.22
- relative viability (NCI-H1944; first compound 0.3162 µM): 0.236
- relative viability (NCI-H1944; first compound 1 µM): 0.196
- relative viability (NCI-H2023; first compound 0.01 µM): 0.548
- relative viability (NCI-H2023; first compound 0.03162 µM): 0.675
- relative viability (NCI-H2023; first compound 0.1 µM): 0.657
- relative viability (NCI-H2023; first compound 0.3162 µM): 0.571
- relative viability (NCI-H2023; first compound 1 µM): 0.493
- relative viability (NCI-H2087; first compound 0.01 µM): 0.993
- relative viability (NCI-H2087; first compound 0.03162 µM): 0.797
- relative viability (NCI-H2087; first compound 0.1 µM): 0.964
- relative viability (NCI-H2087; first compound 0.3162 µM): 0.961
- relative viability (NCI-H2087; first compound 1 µM): 0.888
- relative viability (NCI-H441; first compound 0.01 µM): 0.68
- relative viability (NCI-H441; first compound 0.03162 µM): 0.572
- relative viability (NCI-H441; first compound 0.1 µM): 0.604
- relative viability (NCI-H441; first compound 0.3162 µM): 0.775
- relative viability (NCI-H441; first compound 1 µM): 0.554
- relative viability (NCI-H460; first compound 0.01 µM): 0.538
- relative viability (NCI-H460; first compound 0.03162 µM): 0.464
- relative viability (NCI-H460; first compound 0.1 µM): 0.81
- relative viability (NCI-H460; first compound 0.3162 µM): 0.709
- relative viability (NCI-H460; first compound 1 µM): 0.395
- relative viability (NCI-H520; first compound 0.01 µM): 0.182
- relative viability (NCI-H520; first compound 0.03162 µM): 0.2
- relative viability (NCI-H520; first compound 0.1 µM): 0.216
- relative viability (NCI-H520; first compound 0.3162 µM): 0.159
- relative viability (NCI-H520; first compound 1 µM): 0.162
- relative viability (NCI-H596; first compound 0.01 µM): 0.633
- relative viability (NCI-H596; first compound 0.03162 µM): 0.593
- relative viability (NCI-H596; first compound 0.1 µM): 0.585
- relative viability (NCI-H596; first compound 0.3162 µM): 0.393
- relative viability (NCI-H596; first compound 1 µM): 0.44
- relative viability (NCI-H650; first compound 0.01 µM): 0.368
- relative viability (NCI-H650; first compound 0.03162 µM): 0.454
- relative viability (NCI-H650; first compound 0.1 µM): 0.468
- relative viability (NCI-H650; first compound 0.3162 µM): 0.48
- relative viability (NCI-H650; first compound 1 µM): 0.427
- relative viability (NCI-H661; first compound 0.01 µM): 0.906
- relative viability (NCI-H661; first compound 0.03162 µM): 0.841
- relative viability (NCI-H661; first compound 0.1 µM): 1.1
- relative viability (NCI-H661; first compound 0.3162 µM): 1.03
- relative viability (NCI-H661; first compound 1 µM): 0.644
- relative viability (NCI-H727; first compound 0.01 µM): 0.177
- relative viability (NCI-H727; first compound 0.03162 µM): 0.424
- relative viability (NCI-H727; first compound 0.1 µM): 0.385
- relative viability (NCI-H727; first compound 0.3162 µM): 0.507
- relative viability (NCI-H727; first compound 1 µM): 0.351
- relative viability (PC-3 [JPC-3]; first compound 0.01 µM): 1.05
- relative viability (PC-3 [JPC-3]; first compound 0.03162 µM): 1.07
- relative viability (PC-3 [JPC-3]; first compound 0.1 µM): 1.06
- relative viability (PC-3 [JPC-3]; first compound 0.3162 µM): 1.08
- relative viability (PC-3 [JPC-3]; first compound 1 µM): 0.909
